# Reference: patent US20240124503A1, “HETEROAROMATIC PHOSPHONIUM SALTS AND THEIR USE TREATING CANCER” (FLORATEK PHARMA S.A., priority 2021, published 2024)
# Legend:
# [1] = test system: Panc-1; assay: Cell viability assay, Panc-1; type: cell-based; details: pancreatic carcinoma cell line Panc-1
# Method: (§1) Antitumor activity of the compounds and doxorubicin as a positive control was assessed by using the CellTiter-Blue Cell Viability Assay (Promega, #G8082) or CellTiter-Glow® Luminescent Cell Viability assay (Promega #G7572) according to the manufacturer's instructions. The compounds were tested at 5 or 6 concentrations in half-log increments (highest concentration 30 μM or 100 μM) in duplicate or triplicate well conditions.
# (§2) Tumor cells were grown at 37° C. in a humidified atmosphere with 5% CO2 in RPMI 1640 or DMEM medium, supplemented with 10% (v/v) fetal calf serum and 50 μg/ml gentamicin for up to 20 passages, and were passaged once or twice weekly. Cells were harvested using TrypLE or PBS buffer containing 1 mM EDTA, and the percentage of viable cells was determined using a CASY Model TI cell counter (OMNI Life Science). Cells were harvested from exponential phase cultures, counted and plated in 96 well flat-bottom microtiter plates at a cell density depending on the cell line's growth rate (4,000-20,000 cells/well depending on the cell line's growth rate, up to 60,000 for hematological cancer cell lines) in RPMI 1640 or DMEM medium supplemented with 10% (v/v) fetal calf serum and 50 μg/ml gentamicin (140 μl/well). […] Viability of cells was quantified by the CellTiter-Blue® cell viability assay (Promega G8081) or CellTiter-Glow® Luminescent Cell Viability assay (Promega #G7572). […]
# [2] = test system: BT-474; assay: Cell viability assay, BT-474; type: cell-based; details: Homo sapiens; breast carcinoma cell line BT-474
# Method: as §1, §2
# [3] = test system: MDA-MB-231; assay: Cell viability assay, MDA-MB-231; type: cell-based; details: Homo sapiens; breast carcinoma cell line MDA-MB-231
# Method: as §1, §2
# [4] = test system: CALU-6; assay: Cell viability assay, CALU-6; type: cell-based; details: Homo sapiens; lung carcinoma cell line CALU-6
# Method: as §1, §2
# [5] = test system: Mia-Pa-Ca-2; assay: Cell viability assay, Mia-Pa-Ca-2; type: cell-based; details: Homo sapiens, MIA PaCa-2; pancreatic carcinoma cell line Mia-Pa-Ca-2
# Method: as §1, §2
# [6] = molecular target: T1, ADCK3 (Homo sapiens, UniProt Q8NI60); assay: KINOMEscan competition binding, ADCK3
# T1 construct: purchased Eurofins (KINOMEscan); host or cells: E. coli BL21-derived host (T7 phage) or HEK-293
# T1 sequence (Q8NI60 163-647): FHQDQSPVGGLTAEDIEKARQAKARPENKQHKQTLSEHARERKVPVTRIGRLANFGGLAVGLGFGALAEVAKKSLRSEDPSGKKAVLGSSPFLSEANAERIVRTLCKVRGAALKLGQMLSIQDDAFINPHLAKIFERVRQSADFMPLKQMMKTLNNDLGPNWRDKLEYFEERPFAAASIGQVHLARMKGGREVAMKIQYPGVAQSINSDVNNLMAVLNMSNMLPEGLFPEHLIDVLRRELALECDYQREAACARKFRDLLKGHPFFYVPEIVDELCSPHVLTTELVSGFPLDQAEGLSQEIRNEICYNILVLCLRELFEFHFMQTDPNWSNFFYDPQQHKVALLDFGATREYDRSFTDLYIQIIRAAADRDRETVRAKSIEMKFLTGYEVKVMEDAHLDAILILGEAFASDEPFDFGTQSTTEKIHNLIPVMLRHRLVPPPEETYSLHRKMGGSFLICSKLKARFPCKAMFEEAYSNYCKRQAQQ
# Method: (§3) Selected compounds were screened for kinase inhibition using the KINOMEscan™ assay (Eurofins) which is based on a competition binding assay that quantitatively measures the ability of a compound to compete with an immobilized, active-site directed ligand. The assay was performed by combining three components: DNA-tagged kinase; immobilized ligand; and the test compound. The ability of the test compound to compete with the immobilized ligand was measured via quantitative PCR of the DNA tag.
# (§4) Kinase-tagged T7 phage strains were prepared in an E. coli host derived from the BL21 strain. E. coli were grown to log-phase and infected with T7 phage and incubated with shaking at 32° C. until lysis. The lysates were centrifuged and filtered to remove cell debris. The remaining kinases were produced in HEK-293 cells and subsequently tagged with DNA for qPCR detection. Streptavidin-coated magnetic beads were treated with biotinylated small molecule ligands for 30 minutes at room temperature to generate affinity resins for kinase assays. […] Kds were determined using an 11-point 3-fold compound dilution series with three DMSO control points. […] The kinase concentration in the eluates was measured by qPCR. […]
# (§5) Binding constants (Kds) were calculated with a standard dose-response curve using the Hill equation: Response=Background+[Signal−Background/1+(Kd^Hill Slope/Dose^Hill Slope)] […]
# [7] = molecular target: T2, CDK11 (Homo sapiens, UniProt Q9BWU1); assay: KINOMEscan competition binding, CDK11
# T2 construct: purchased Eurofins (KINOMEscan); host or cells: E. coli BL21-derived host (T7 phage) or HEK-293
# T2 sequence (Q9BWU1 whole entry): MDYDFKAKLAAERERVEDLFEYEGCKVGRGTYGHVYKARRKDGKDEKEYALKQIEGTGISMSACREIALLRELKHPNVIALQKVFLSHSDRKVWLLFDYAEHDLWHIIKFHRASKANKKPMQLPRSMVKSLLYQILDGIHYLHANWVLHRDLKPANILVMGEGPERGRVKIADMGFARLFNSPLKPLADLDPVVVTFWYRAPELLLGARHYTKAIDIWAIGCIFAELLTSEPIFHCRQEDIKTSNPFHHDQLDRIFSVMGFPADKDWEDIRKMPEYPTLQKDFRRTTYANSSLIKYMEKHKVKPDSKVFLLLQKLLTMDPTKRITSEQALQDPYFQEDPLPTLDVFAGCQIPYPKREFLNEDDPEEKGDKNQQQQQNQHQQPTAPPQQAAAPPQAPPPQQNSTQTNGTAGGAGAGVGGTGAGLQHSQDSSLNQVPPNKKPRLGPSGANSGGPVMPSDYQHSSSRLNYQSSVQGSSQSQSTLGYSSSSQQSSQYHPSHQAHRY
# Method: as §3, §4, §5
# [8] = molecular target: T3, RIOK2 (Homo sapiens, UniProt Q9BVS4); assay: KINOMEscan competition binding, RIOK2
# T3 construct: purchased Eurofins (KINOMEscan); host or cells: E. coli BL21-derived host (T7 phage) or HEK-293
# T3 sequence (Q9BVS4 whole entry): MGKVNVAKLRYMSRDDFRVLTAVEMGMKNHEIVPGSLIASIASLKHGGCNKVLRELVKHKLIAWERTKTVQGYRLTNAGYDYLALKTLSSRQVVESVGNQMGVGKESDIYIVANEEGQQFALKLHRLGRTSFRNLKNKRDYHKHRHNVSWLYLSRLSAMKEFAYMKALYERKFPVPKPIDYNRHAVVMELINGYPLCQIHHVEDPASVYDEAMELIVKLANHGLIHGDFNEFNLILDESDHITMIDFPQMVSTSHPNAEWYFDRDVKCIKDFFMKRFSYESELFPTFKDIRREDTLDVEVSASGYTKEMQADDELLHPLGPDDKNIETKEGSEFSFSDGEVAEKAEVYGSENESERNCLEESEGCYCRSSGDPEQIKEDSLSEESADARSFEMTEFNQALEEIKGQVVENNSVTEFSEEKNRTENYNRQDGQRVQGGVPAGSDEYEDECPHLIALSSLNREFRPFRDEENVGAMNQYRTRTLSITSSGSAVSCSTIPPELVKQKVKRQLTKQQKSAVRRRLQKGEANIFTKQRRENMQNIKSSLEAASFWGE
# Method: as §3, §4, §5
# [9] = molecular target: T4, RSK2(Kin.Dom.1-N-terminal) (Homo sapiens, UniProt P51812); assay: KINOMEscan competition binding, RSK2(Kin.Dom.1-N-terminal)
# T4 construct: Kin.Dom.1; purchased Eurofins (KINOMEscan); host or cells: E. coli BL21-derived host (T7 phage) or HEK-293
# T4 sequence (P51812 68-327 limits assumed): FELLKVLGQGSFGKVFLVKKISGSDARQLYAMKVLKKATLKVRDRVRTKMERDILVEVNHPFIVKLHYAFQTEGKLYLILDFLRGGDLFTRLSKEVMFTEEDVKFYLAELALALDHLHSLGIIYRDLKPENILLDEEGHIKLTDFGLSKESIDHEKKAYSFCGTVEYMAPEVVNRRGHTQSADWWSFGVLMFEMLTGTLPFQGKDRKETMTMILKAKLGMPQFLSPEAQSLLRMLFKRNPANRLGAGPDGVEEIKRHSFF
# Method: as §3, §4, §5
# [10] = molecular target: T5, TRKA (Homo sapiens, UniProt P04629); assay: KINOMEscan competition binding, TRKA
# T5 construct: purchased Eurofins (KINOMEscan); host or cells: E. coli BL21-derived host (T7 phage) or HEK-293
# T5 sequence (P04629 33-796): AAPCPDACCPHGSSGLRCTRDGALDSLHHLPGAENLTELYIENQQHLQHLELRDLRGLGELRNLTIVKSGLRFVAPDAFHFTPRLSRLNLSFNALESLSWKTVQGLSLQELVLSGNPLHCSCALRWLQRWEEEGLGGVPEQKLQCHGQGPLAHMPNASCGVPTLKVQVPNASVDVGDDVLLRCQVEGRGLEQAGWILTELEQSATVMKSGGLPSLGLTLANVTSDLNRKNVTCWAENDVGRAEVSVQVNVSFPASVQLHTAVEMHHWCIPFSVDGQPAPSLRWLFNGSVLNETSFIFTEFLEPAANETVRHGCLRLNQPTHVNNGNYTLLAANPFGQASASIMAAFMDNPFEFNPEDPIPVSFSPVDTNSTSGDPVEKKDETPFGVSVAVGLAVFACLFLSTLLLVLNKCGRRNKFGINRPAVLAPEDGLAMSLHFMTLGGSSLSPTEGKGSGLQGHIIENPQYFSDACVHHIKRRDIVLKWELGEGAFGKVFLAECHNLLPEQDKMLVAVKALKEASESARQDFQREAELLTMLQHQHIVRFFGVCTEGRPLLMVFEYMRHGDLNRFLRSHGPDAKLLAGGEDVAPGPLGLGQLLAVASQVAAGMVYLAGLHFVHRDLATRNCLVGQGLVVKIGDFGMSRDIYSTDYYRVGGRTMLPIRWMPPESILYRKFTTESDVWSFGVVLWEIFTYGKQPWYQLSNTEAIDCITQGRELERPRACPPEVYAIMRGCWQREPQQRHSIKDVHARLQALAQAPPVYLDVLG
# Method: as §3, §4, §5
# [11] = test system: ovarian cancer cell; assay: Cell viability, ovarian cancer cells (panel statement); type: cell-based; details: Table 17; read-out: IC50, ovarian cancer cell growth
# Method: as §1, §2
Structure (SMILES),IC50 [1] [nM],IC50 [2] [nM],IC50 [3] [nM],IC50 [4] [nM],IC50 [5] [nM],Kd [6] [nM],Kd [7] [nM],Kd [8] [nM],Kd [9] [nM],Kd [10] [nM],IC50 [11] [nM]
"O=c1cc(-c2ccc(CCC[P+](c3ccccc3)(c3ccccc3)c3ccccc3)cc2)oc2c(O)c(O)ccc12 [SND200, (3-(4-(7,8-Dihydroxy-4-oxo-4H1-chromen-2-yl)phenyl)propyl)triphenylphosphonium bromide]",1330,–,–,–,–,–,–,–,–,–,–
"COc1c(O)ccc2c(=O)c(O)c(-c3ccc(CCCC[P+](c4ccccc4)(c4ccccc4)c4ccccc4)cc3)oc12 [SND190, (4-(4-(3,7-Dihydroxy-8-methoxy-4-oxo-4H1-chromen-2-yl)phenyl)butyl)triphenylphosphonium bromide]",–,1900,3500,2390,330,100,3600,710,1700,2300,< 20000
